Assay results reported in patent US9687456B2, “Nutritional compositions for modulating inflammation including exogenous vitamin K2” (NESTEC S.A., priority 2009, dated 2017).

Columns and labels:
Assay type in all cases: in vivo, Sprague-Dawley rats
plasma TNF-a = assay: LPS-induced inflammation in rats: plasma TNF-a; conditions: oral gavage 25 or 50 microgram daily over 7 days, LPS 0.5 mg/kg IP on Day 7, sacrifice four hours later, compared to LPS treated animals
Experimental: (§1) Male Sprague-Dawley rats (175 g) are kept on a 12-h light:dark cycle with food (Harlan-Teklad Rodent Chow, Madison, Wis.) and water provided freely. Animals are administered daily doses of vitamin K2 (MK-7) or saline (control) via oral gavage over 7 days. Stock solutions of vitamin K2 are prepared containing 3.5 g/L HCO-60 and 1 g/L of […] in buffer A (0.15 M NaCl, 0.05 M Tris-HCl, pH 7.5). The K2 is dissolved by sonication during five pulses of 5 set with an amplitude of 6 pm. Solutions thus obtained are clear, homogeneous, and stable. Shortly before vitamin K administration the stock solutions are diluted five times with buffer A, leading to a final HCO-60 concentration of 0.7 g/L. Further dilutions (as required) are made with 0.7 g/L HCO-60 in buffer A. Each dilution step is followed by sonication as described above. In all cases vitamin K2 is administered to the rats in 0.5 mL samples, with either 25 or 50 microgram oral doses.
On the final day (Day 7), rodents are administered vitamin K2 and 2 hours later were given an IP dose of LPS (Escherichia coli serotype O111:B4, L2630, Sigma) intraperitoneally (0.5 mg/kg of body weight). Four hours later animals are sacrificed.

IKKα/β (Ser176/180) = assay: LPS-treated rats: gastrocnemius muscle immunoblot, phosphorylated IKKα/β; conditions: oral 25 or 50 microgram daily over 7 days, LPS IP, compared to LPS treatment
Experimental: (§2) Male Sprague-Dawley rats (175 g) are kept on a 12-h light:dark cycle with food (Harlan-Teklad Rodent Chow, Madison, Wis.) and water provided freely. Animals are administered daily doses of vitamin K2 (MK-7) or saline (control) via oral gavage over 7 days. Stock solutions of vitamin K2 are prepared containing 3.5 g/L HCO-60 and 1 g/L of […] in buffer A (0.15 M NaCl, 0.05 M Tris-HCl, pH 7.5). The K2 is dissolved by sonication during five pulses of 5 set with an amplitude of 6 pm. Solutions thus obtained are clear, homogeneous, and stable. […]
(§3) Analysis of mTOR Signaling to eIFs—Gastrocnemius muscles are weighed and homogenized in 7 volumes of buffer containing 20 mM HEPES (pH 7.4), 100 mM potassium chloride, 0.2 mM EDTA, 2 mM EGTA, 50 mM sodium fluoride, 50 mM glycerophosphate, 0.1 mM phenylmethylsulfonyl fluoride, 1 mM benzamidine, 1 mM dithiothreitol (DTT), and 0.5 mM sodium vanadate. […] Samples are analyzed for the phosphorylation status of 4E-BP1 (Thr37) and ribosomal protein S6 (Ser 235/236), the anti-phosphospecific antibodies were obtained from Cell Signaling Technology, Beverly, Mass. Additionally, samples are analyzed for phosphorylated IKKα/β (Ser176/180; Cell Signaling Technology) and phosphorylated p65 (Ser536; Cell Signaling Technology).

NFκB p65 (Ser536) = assay: LPS-treated rats: gastrocnemius muscle immunoblot, phosphorylated p65; conditions: oral 25 or 50 microgram daily over 7 days, LPS IP, compared to LPS treatment
Experimental: as §2, §3

4E-BP1 (Thr37) = assay: LPS-treated rats: mTOR signaling to eIFs, 4E-BP1 phosphorylation in gastrocnemius muscle; conditions: oral 25 or 50 microgram daily over 7 days, LPS IP, compared to LPS treatment
Experimental: as §2, §3

[1] = test system: ribosomal protein S6 (Ser 235/236); assay: LPS-treated rats: mTOR signaling to eIFs, ribosomal protein S6 phosphorylation in gastrocnemius muscle; conditions: oral 25 or 50 microgram daily over 7 days, LPS IP, compared to LPS treatment
Experimental: as §2, §3

[2] = test system: mixed muscle protein synthesis; assay: LPS-treated rats: fractional rate of mixed muscle protein synthesis (Ks), radioactive phenylalanine incorporation; conditions: oral 25 or 50 microgram daily over 7 days, LPS IP, conditions of inflammatory sepsis, compared to LPS treatment
Experimental: as §1, with “doses. […]” for “doses.”
Measurement of Protein Synthesis—The fractional rate of synthesis (Ks) is estimated from the rate of incorporation of radioactive phenylalanine into total mixed muscle protein using the specific radioactivity of serum phenylalanine as representative of the precursor pool. […]

With `CC(C)=CCC/C(C)=C/CC/C(C)=C/CC/C(C)=C/CC/C(C)=C/CC/C(C)=C/CC/C(C)=C/CC1=C(C)C(=O)c2ccccc2C1=O` [K2, vitamin K2 (MK-7)] the “rise of plasma TNF-a” value (plasma TNF-a) was “significant decrease in the rise”, the “phosphorylation for IKKα/β” value (IKKα/β (Ser176/180)) was “significant blunting of the drop in phosphorylation” and the “NFκB p65 induction” value (NFκB p65 (Ser536)) was “significant blunting”. For the same compound, the “4E-BP1(Thr-37) phosphorylation” value (4E-BP1 (Thr37)) was “abrogates the decrease”, the “ribosomal protein S6 phosphorylation” value [1] was “abrogates the decrease” and the “fractional rate of mixed muscle protein synthesis” value [2] was “greater preservation”.
